Results on 1 molecule are retold here after US20240279212A1, “NOVEL INTERMEDIATE FOR PREPARATION OF PYROXASULFONE” (UPL LIMITED, priority 2021, published 2024).

Structures are written as SMILES.

A short description of data set [1]: Particle size distribution of Pyroxasulfone prepared in Example 8. To be noted: product of Example 8 (H2O2/sodium tungstate oxidation, isopropyl alcohol/water treatment). Type of data set: physicochemical.
Data set [2] can be described thus: Bulk density of Pyroxasulfone prepared in Example 8. Type of data set: physicochemical. The following applies: product of Example 8 (H2O2/sodium tungstate oxidation, isopropyl alcohol/water treatment).

Consider `Cn1nc(C(F)(F)F)c(CS(=O)(=O)C2=NOC(C)(C)C2)c1OC(F)F` [Pyroxasulfone, 3-[5-(difluoromethoxy)-1-methyl-3-(trifluoromethyl)pyrazol-4-ylmethylsulfonyl]-4,5-dihydro-5,5-dimethyl-1,2-oxazole], for which the “Particle Size Distribution: D50” value in data set [1] is given as 113.30 μm. Further, the Bulk density in data set [2] lay within 0.54 to 0.57 g/mL.
